The numbers were not newly measured in patent US20130096316A1, “Novel Method for Preparation of Bisnorcymerine and Salts Thereof” (QR PHARMA, INC., priority 2011, published 2013), which cites them from elsewhere.

For this series, the target named is human BChE (Homo sapiens, UniProt P06276). Particulars: ratio of the AChE IC50 to the BChE IC50; cited from Yu et al., 1999.
Chain of human BChE (P06276 29-602): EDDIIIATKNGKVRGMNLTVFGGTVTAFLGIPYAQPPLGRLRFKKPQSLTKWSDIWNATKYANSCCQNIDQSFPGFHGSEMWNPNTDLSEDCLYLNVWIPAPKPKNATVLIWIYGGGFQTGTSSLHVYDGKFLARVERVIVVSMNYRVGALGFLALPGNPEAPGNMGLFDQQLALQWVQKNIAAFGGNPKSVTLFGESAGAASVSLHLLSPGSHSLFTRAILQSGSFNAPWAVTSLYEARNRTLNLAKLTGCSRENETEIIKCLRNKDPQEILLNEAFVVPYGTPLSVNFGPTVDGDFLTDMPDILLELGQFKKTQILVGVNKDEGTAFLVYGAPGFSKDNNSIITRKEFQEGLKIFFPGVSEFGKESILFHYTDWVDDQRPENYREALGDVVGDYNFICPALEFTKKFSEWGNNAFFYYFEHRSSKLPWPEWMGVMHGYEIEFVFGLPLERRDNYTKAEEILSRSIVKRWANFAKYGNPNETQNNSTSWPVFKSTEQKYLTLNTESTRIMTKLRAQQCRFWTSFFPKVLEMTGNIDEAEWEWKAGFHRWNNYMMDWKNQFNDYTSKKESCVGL

Regarding `CC(C)c1ccc(NC(=O)Oc2ccc3c(c2)[C@]2(C)CCNC2N3)cc1` (stereo partly drawn) [Compound 1, (3aS)-3a-methyl-1,2,3,3a,8,8a-hexahydropyrrolo[2,3-b]indol-5-yl (4-isopropylphenyl)carbamate], the “selectivity for inhibition of BChE as compared to AChE” value is 110 fold.
